IC50 data for 49 compounds are collected here from US12583815B2, “Inhibitors of YAP/TAZ-TEAD oncoproteins, synthesis and use thereof” (BRIDGENE BIOSCIENCES, INC., priority 2020, dated 2026).

The target in the experiment is T1, TEAD1 (Homo sapiens, UniProt P28347).
T1 construct: endogenous in cells; host or cells: MCF-7
Nature of the experiment: TEAD1-Luciferase reporter assay (MCF-7 cell-based TEAD1-Luc assay). The following applies: cells treated with compound overnight, luciferase chemiluminescence readout. On the procedure:
TEAD1-Luciferase Reporter Assay to Characterize the Pharmacological Properties of the Tead1 Covalent Inhibitors
FIG. 1 is a schematic illustration of the mechanism of TEAD1 inhibition by the disclosed compounds, which is the theoretical basis for the development of a TEAD-YAP/TAZ cell-based functional assay to characterize the pharmacological properties of the synthesized inhibitor compounds. The MCF-7 cell-based TEAD1-Luc assay for the IC50 measurement was performed as below. Compounds 2, 4, 5, and 7, representing different chemical scaffolds, were characterized. About 200 μL of culture medium was placed in each of the 10^4 cell/well in a 96-well plate. The next day the cells were treated with the synthesized compounds for overnight. The luciferase activity was measured with a chemiluminescent assay kit. Specifically, the plate was equilibrated at room temperature. […] and 50 μL of the medium was left inside. To each well was added 50 μL Luciferase reagents. The plates were gently rocked for more than about 15 minutes at room temperature. The luminescence signal was then read and recorded. Table 2 below summarizes the measured IC50 values for the disclosed compounds.
A general note: A reporter such as luciferase makes a cellular process visible.

Where only a bound is given, the exact number is not on record here.

One may read the IC50 as the concentration that inhibits the measured activity by half.

T1 sequence (P28347 whole entry): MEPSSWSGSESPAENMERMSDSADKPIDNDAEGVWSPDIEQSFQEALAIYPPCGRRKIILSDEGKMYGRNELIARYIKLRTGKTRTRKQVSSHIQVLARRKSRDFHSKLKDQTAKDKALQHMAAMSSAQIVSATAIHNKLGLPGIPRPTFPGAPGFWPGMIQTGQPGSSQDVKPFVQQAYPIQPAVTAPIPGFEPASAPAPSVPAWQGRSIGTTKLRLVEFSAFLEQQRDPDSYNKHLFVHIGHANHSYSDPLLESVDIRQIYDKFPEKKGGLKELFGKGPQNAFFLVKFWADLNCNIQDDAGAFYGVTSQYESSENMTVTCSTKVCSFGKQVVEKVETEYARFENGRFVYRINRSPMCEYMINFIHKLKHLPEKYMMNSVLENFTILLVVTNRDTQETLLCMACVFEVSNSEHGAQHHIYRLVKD

Consider `C=CC(=O)N[C@@H]1CC[C@H](Oc2cccc(C(F)(F)F)c2)C1` (single isomer, unassigned) [Compound 41, N-((1R*,3S*)-3-(3-(trifluoromethyl)phenoxy)cyclopentyl)acrylamide], for which the concentration for half-maximal inhibition (IC50) is at most 100 nM. The value for `C=CC(=O)N[C@H]1CC[C@@H](Oc2cccc(C(F)(F)F)c2)C1` (single isomer, unassigned) [Compound 42, N-((1S*,3R*)-3-(3-(trifluoromethyl)phenoxy)cyclopentyl)acrylamide] was 100 to 5000 nM; that for `C#Cc1cccc(Oc2ccccc2NC(=O)CCl)c1` [Compound 1] was at least 5000 nM; that for `C#Cc1cccc(Oc2cccc(NC(=O)C=C)c2)c1` [Compound 2] was 100 to 5000 nM. For `C#Cc1cccc(Oc2ccc(NC(=O)C=C)cc2)c1` [Compound 3], the IC50 is at least 5000 nM.

As for `C=CC(=O)Nc1cccc(Oc2cccc(C(F)(F)F)c2)c1` [Compound 4], the IC50 is at most 100 nM.

Regarding `C#CCCCO/N=C1\CCCc2cc(NC(=O)C=C)ccc21` [Compound 5], the IC50 is at least 5000 nM.

`C=CC(=O)Nc1ccc2c(c1)CCC/C2=N\OCCCCC` [Compound 6]: the IC50 is at least 5000 nM.

With `C#CCCCO/N=C1/CCc2cc(NC(=O)C=C)ccc21` [Compound 7], the IC50 is at least 5000 nM. The value for `C=CC(=O)Nc1ccc2c(c1)CC/C2=N/OCCCCC` [Compound 8] was at least 5000 nM; that for `C=CC(=O)Nc1cccc(Oc2cccc(OC)c2)c1` [Compound 9, N-(3-(3-methoxyphenoxy)phenyl)acrylamide] was at most 100 nM; that for `C=CC(=O)Nc1cccc(Oc2csc(C(F)(F)F)c2)c1` [Compound 10, N-(3-((5-(trifluoromethyl)thiophen-3-yl)oxy)phenyl)acrylamide] was at most 100 nM. The figure for `C=CC(=O)Nc1ccc(Oc2cccc(C(F)(F)F)c2)s1` [Compound 11, N-(5-(3-(trifluoromethyl)phenoxy)thiophen-2-yl)acrylamide] is at most 100 nM; for `C=CC(=O)Nc1cc(F)cc(Oc2ccc(C(F)(F)F)cc2)c1` [Compound 12, N-(3-fluoro-5-(4-(trifluoromethyl)phenoxy)phenyl)acrylamide] it is at most 100 nM; for `C=CC(=O)Nc1cccc(Oc2cc(C(F)(F)F)ccn2)c1` [Compound 13, N-(3-((4-(trifluoromethyl)pyridin-2-yl)oxy)phenyl)acrylamide] it is at most 100 nM. The value for `C=CC(=O)Nc1cccc(Oc2ccc(C(F)(F)F)cn2)c1` [Compound 14, N-(3-((5-(trifluoromethyl)pyridin-2-yl)oxy)phenyl)acrylamide] was at most 100 nM; that for `CCCCCO/N=C1\CCc2cc(NC(=O)/C=C/CN(C)C)ccc21` [Compound 15, (E)-4-(dimethylamino)-N—((E)-1-((pentyloxy)imino)-2,3-dihydro-1H-inden-5-yl)but-2-enamide] was at most 100 nM; that for `C=CC(=O)Nc1ccc2c(c1)OCC/C2=N\OCCCCC` [Compound 16, (E)-N-(4-((pentyloxy)imino)chroman-7-yl)acrylamide] was at most 100 nM.

As to `C=CC(=O)Nc1ccc2cc(OCCCC)ccc2c1` [Compound 17, N-(6-butoxynaphthalen-2-yl)prop-2-enamide], the IC50 is at most 100 nM. The value for `C=CC(=O)Nc1ccc2nc(OCCCC)ccc2c1` [Compound 18, N-(2-butoxyquinolin-6-yl)acrylamide] was at most 100 nM; that for `C=CC(=O)Nc1ccc2c(OCCCCC)nccc2c1` [Compound 19, N-(1-(pentyloxy)isoquinolin-6-yl)acrylamide] was at most 100 nM; that for `C=CC(=O)Nc1ccc2c(OCCCCC)cccc2c1` [Compound 20, N-(5-(pentyloxy)naphthalen-2-yl)acrylamide] was at most 100 nM. The figure for `C=CC(=O)Nc1ccc2c(Oc3ccc(C(F)(F)F)cn3)cccc2c1` [Compound 21, N-(5-((5-(trifluoromethyl)pyridin-2-yl)oxy)naphthalen-2-yl)acrylamide] is at most 100 nM.

Take `C=CC(=O)Nc1ccc(-c2cc(C(F)(F)F)on2)c(C)c1` [Compound 22, N-(3-methyl-4-(5-(trifluoromethyl)isoxazol-3-yl)phenyl)acrylamide]: the IC50 is at most 100 nM. The value for `C=CC(=O)Nc1ccc(-c2cc(C(F)(F)F)on2)c(Cl)c1` [Compound 23, N-(3-chloro-4-(5-(trifluoromethyl)isoxazol-3-yl)phenyl)acrylamide] was at most 100 nM; that for `C=CC(=O)Nc1ccc(-c2ccn(CCCCC)n2)cc1` [Compound 24, N-(4-(1-pentyl-1H-pyrazol-3-yl)phenyl)acrylamide] was at most 100 nM; that for `C=CC(=O)Nc1ccc2c(c1)CCc1cn(CCCCC)nc1-2` [Compound 25] was 100 to 5000 nM. The figure for `C=CC(=O)Nc1ccc(-c2cc(CCCC)on2)cc1` [Compound 26, N-(4-(5-butylisoxazol-3-yl)phenyl)acrylamide] is at most 100 nM; for `C=CC(=O)Nc1ccc2c(c1)CCc1c-2noc1CCCC` [Compound 27, N-(3-butyl-4,5-dihydronaphtho[1,2-c]isoxazol-7-yl)acrylamide] it is 100 to 5000 nM; for `C=CC(=O)Nc1ccc(-c2cc(C(F)(F)F)on2)cc1` [Compound 28, N-(4-(5-(trifluoromethyl)isoxazol-3-yl)phenyl)acrylamide] it is at most 100 nM. Turning to `C=C(F)C(=O)Nc1ccc2c(c1)CCC/C2=N\OCCCCC` [Compound 29, (E)-2-fluoro-N-(5-((pentyloxy)imino)-5,6,7,8-tetrahydronaphthalen-2-yl)acrylamide], the IC50 lay in the range of 100 to 5000 nM. The figure for `C=CC(=O)Nc1ccc(-c2cc(C3CC3)on2)cc1` [Compound 30, N-(4-(5-cyclopropylisoxazol-3-yl)phenyl)acrylamide] is 100 to 5000 nM. The figure for `C=CC(=O)Nc1ccc(-c2nocc2C(F)(F)F)cc1` [Compound 31, N-(4-(4-(trifluoromethyl)isoxazol-3-yl)phenyl)acrylamide] is at most 100 nM; for `C=CC(=O)Nc1ccc(-c2cc(C(F)(F)F)no2)c(Cl)c1` [Compound 32, N-(3-chloro-4-(3-(trifluoromethyl)isoxazol-5-yl)phenyl)acrylamide] it is at most 100 nM. The figure for `C=CC(=O)Nc1ccc(-c2noc(C(F)(F)F)n2)c(Cl)c1` [Compound 33, N-(3-chloro-4-(5-(trifluoromethyl)-1,2,4-oxadiazol-3-yl)phenyl)acrylamide] is at most 100 nM.

Regarding `C=CC(=O)Nc1ccc(-n2cc(C(F)(F)F)nn2)c(Cl)c1` [Compound 34, N-(3-chloro-4-(4-(trifluoromethyl)-1H-1,2,3-triazol-1-yl)phenyl)acrylamide], the IC50 is at most 100 nM. The figure for `C=CC(=O)Nc1ccc(-n2ncc(C(F)(F)F)n2)c(Cl)c1` [Compound 35, N-(3-chloro-4-(4-(trifluoromethyl)-2H-1,2,3-triazol-2-yl)phenyl)acrylamide] is at most 100 nM. The figure for `C=CC(=O)Nc1cc(F)cc(Oc2cccc(C(F)(F)F)c2)c1` [Compound 36, N-(3-fluoro-5-(3-(trifluoromethyl)phenoxy)phenyl)acrylamide] is at most 100 nM. The value for `C=CC(=O)Nc1cc(Oc2cccc(C(F)(F)F)c2)ccc1F` [Compound 37, N-(2-fluoro-5-(3-(trifluoromethyl)phenoxy)phenyl)acrylamide] was at most 100 nM. In the case of `C=CC(=O)Nc1cccc(Oc2ccc(C(F)(F)F)cc2)c1` [Compound 38, N-(3-(4-(trifluoromethyl)phenoxy)phenyl)acrylamide], the IC50 is at most 100 nM. The figure for `C=CC(=O)NC1COCC(Oc2cccc(C(F)(F)F)c2)C1` (stereo not shown) [Compound 39, N-(5-(3-(trifluoromethyl)phenoxy)tetrahydro-2H-pyran-3-yl)acrylamide] is 100 to 5000 nM. The figure for `C=CC(=O)Nc1cccc(OC2CCC(F)(F)CC2)c1` [Compound 40, N-(3-((4,4-difluorocyclohexyl)oxy)phenyl)acrylamide] is at most 100 nM. As for `C=CC(=O)N[C@@H]1CC[C@@H](Oc2cccc(C(F)(F)F)c2)C1` [Compound 43, N-((1R,3R)-3-(3-(trifluoromethyl)phenoxy)cyclopentyl)acrylamide], the IC50 was 100 to 5000 nM.

`C=CC(=O)N[C@H]1CC[C@H](Oc2cccc(C(F)(F)F)c2)C1` [Compound 44, N-((1S,3S)-3-(3-(trifluoromethyl)phenoxy)cyclopentyl)acrylamide]: the IC50 fell in the range of 100 to 5000 nM. The figure for `C=CC(=O)NC1CCC(Oc2cccc(C(F)(F)F)c2)C1` (stereo not shown) [Compound 45, N-(3-(3-(trifluoromethyl)phenoxy)cyclopentyl)acrylamide] is 100 to 5000 nM; for `C=CC(=O)NC1CCC(Oc2cc(C(F)(F)F)on2)C1` (stereo not shown) [Compound 46, N-(3-((5-(trifluoromethyl)isoxazol-3-yl)oxy)cyclopentyl)acrylamide] it is 100 to 5000 nM; for `C=CC(=O)Nc1ccc2c(c1)CCC/C2=N\OCC` [Compound 47, (E)-N-(5-(ethoxyimino)-5,6,7,8-tetrahydronaphthalen-2-yl)acrylamide] it is at most 100 nM. Turning to `C=CC(=O)Nc1ccc2c(c1)CCC/C2=N\OCCOCC` [Compound 48, (E)-N-(5-((2-ethoxyethoxy)imino)-5,6,7,8-tetrahydronaphthalen-2-yl)acrylamide], the IC50 was at most 100 nM. The value for `C=CC(=O)Nc1ccc2c(c1)CCC/C2=N\OCC(C)C` [Compound 49, (E)-N-(5-(isobutoxyimino)-5,6,7,8-tetrahydronaphthalen-2-yl)acrylamide] was at most 100 nM.
